Here are results for 1 substance from US8617563B2, “Antichlamydial agents” (Duke University, priority 2011, dated 2013).

The test system of assay [1] is epithelial cells infected with C. trachomatis. The assay can be described thus: Host cell death (condensed nuclei) in C. trachomatis infected cells. Type of assay: cell-based. As to conditions: dose-dependent, peptide at 12 hpi. On the procedure:
FIG. 11 depicts (A) that inhibiting CPAF activity induces host cell death. The indicated peptides (anti-CPAF peptide refers to SEQ ID NO:7) were added to infected cells 12 hpi and the percentage of infected cells with condensed nuclei was quantified at the indicated times. (B-C) Inhibition of CPAF activity induces apoptosis. Infected cells were treated with peptides and the percentage of AnnexinV-FITC positive (propidium iodide (PI) negative) was determined by flow cytometry (B). In parallel samples, cleavage of Caspase-3, a hallmark of apoptosome activation, was monitored by immunoblot analysis. Actin and MOMP are host and bacterial loading controls respectively. Staurosporine (2 μM)-treatment was used as a positive control and the pan-caspase inhibitor ZVAD-FMK were used as controls. (D) Cell death is blocked by a pan-Caspase inhibitor. Infected cells were treated as in (A) in the presence or absence of ZVAD-FMK, labeled with PI and analyzed by flow cytometry. Cells pre-treated with ZVAD-FMK and the control peptide lacked PI staining.
FIG. 12 depicts (A) low-magnification view of C. trachomatis LGV-L2 infected HeLa monolayers (30 h) treated with SEQ ID NO:7 or SEQ ID NO:11 peptides. […] HeLa cells infected with C. muridarum were treated with Ac-YVAD-CMK at 2 hpi, SEQ ID NO:7 peptide or SEQ ID NO:11 control peptide at 12 hpi and the percentage of infected cells with condensed nuclei was assessed at 48 hpi (F). […] The percentage of infected cells with condensed nuclei was assessed at 48 hpi (G). […] Cell death in infected and uninfected cells treated with CPAF inhibitory peptides or control peptides was determined by counting the number of condensed nuclei of ˜1000 cells.
FIG. 13 depicts (A) that Caspase-1 inhibitors block Chlamydia-mediated cell death. […] Cells were fixed and the percentage of cells with condensed nuclei determined at 24 hpi. […] Infected cells were labeled with a cell-permeable fluorescent substrate of Caspase-1 and treated with inhibitory peptides, and Caspase-1 activity was monitored by flow cytometry. […]

Assay [2] concerns Chlamydia-infected HeLa cells. The assay can be described thus: Inclusion integrity and vimentin cage by immunofluorescence and TEM. It is filed as cell-based, C. trachomatis. As to conditions: for Vimentin re-organization / cage around the inclusion: infected HeLa cells treated with peptide. The protocol: (§1) FIG. 9 depicts (A) CPAF inhibitory peptides block the generation of Chlamydia infectious particles. L2-infected HeLa cells were treated at 12 hpi with increasing concentration of peptides. EBs were harvested at 30 hpi and inclusion-forming units (IFU) were quantified on fresh cell monolayers. (B-D) CPAF activity is required to maintain inclusion integrity. The integrity of the inclusion was determined by assessing the immunolocalization of the inclusion membrane marker IncA (red) and Chlamydia (green) (B) and by transmission electron microscopy (C). […] (D) The percentage of vimentin-positive inclusions was determined by IF in infected cells treated with SEQ ID NO:7 and SEQ ID NO:11 (12 hpi) peptides at 24 hpi. (E) Activation of inflammatory cytokines upon inhibition of CPAF activity. Levels of IL-8 supernatants from Chlamydia infected cells treated with peptides as in (B-D) were determined at 24 hpi by ELISA.
FIG. 19 depicts HeLa cells infected with C. trachomatis L2, treated with SEQ ID NO:11 and SEQ ID NO:7, and harvested at 30 hpi. (A) Immunofluorescence microscopy via staining with an anti-vimentin antibody (“vimentin”) and an anti-Chlamydia L2 antibody (“L2”). […] (B) Cells were lysed in the presence of protease inhibitors, resolved by SDS-PAGE, and subjected to immunoblot analysis. Vimentin, RpoD (bacterial loading control), and GAPDH (host loading control) were visualized with substrate-specific antibodies).
For routine indirect immunofluorescence, HeLa cells were grown on glass coverslips and infected with Chlamydia at an MOI of 1. At the indicated times post-infection, cells were fixed with cold 3% formaldehyde, permeabilized with 0.1% Tx-100, blocked in 2% bovine serum albumin (BSA), and incubated with primary antibody followed by secondary fluorophore-conjugated anti-rabbit or anti-mouse IgG (available from Molecular Probes). Host and Chlamydial DNA were stained with 1 μM Hoechst (available from Invitrogen). […]

The next assay has as its system IL-8 secretion. The assay can be described thus: IL-8 secretion by infected HeLa cells (ELISA). As to conditions: peptide 12.5 μM at 12 hpi, measured 24 hpi. Type of assay: cell-based, human. On the procedure: as §1
Next, the mechanism underlying the block in chlamydial replication was assessed by performing microscopy analyses of Chlamydia-infected cells treated with an inhibitor of CPAF (SEQ ID NO:7). […] IL-8 secretion into the media was determined with a Human IL-8 ELISA kit (available from BioLegend).

“Also recorded” adds a separate entry of the source. Where no end group is shown, it is not given here.

For the substance “SLFYSPMVPHFWAELRNHYATSGLKRRRRRRRRR-NH2 [SEQ ID NO:7]”, in assay [1], the “Number of condensed nuclei in C. trachomatis infected cells” value is “marked increase in the number of condensed nuclei”. Also, the “Vimentin re-organization / cage around the inclusion” value was “loss of vimentin re-organization around the inclusion; also recorded: increased disorder in the position of the vimentin cage” in assay [2] and “loss of the vimentin cage” in assay [2] (listed as peptide 4). For the same substance, in assay [2] (prolonged treatment (>8 h)), the “Inclusion structure integrity (IncA, Cap1 localisation)” value is given as “collapse of the inclusion structure”. Also, the IL-8 secretion result in the assay on IL-8 secretion is “increased IL-8 secretion”.
